This note sets out measurements from patent US6531464B1, “Methods for the treatment of neurodegenerative disorders using substituted phenanthridinone derivatives” (Inotek Pharmaceutical Corporation, priority 1999, dated 2003).

For experiment [1], the system named is Balb/c mice. Briefly: LPS-induced mortality (systemic inflammatory model). As to conditions: LPS 90 mg/kg intraperitoneally; pretreatment 20 mg/kg; over 24 h; 92% death without treatment.
Experimental: In order to substantiate the efficacy of the PJ series of compounds in inflammatory conditions, the effect of compounds according to the invention were tested in a systemic inflammatory model induced by bacterial lipopolysaccharide.
Experiment [2] concerns nitric oxide (nitrite). Briefly: LPS-stimulated J774 macrophages: nitric oxide production measured as nitrite. It counts as cell-based. An excerpt: (§1) In in vitro studies, J774 macrophages were exposed to bacterial lipopolysaccharide (LPS), to induce pro-inflammatory mediator production and cytotoxicity. […] This assay (the LPS-stimulated macrophage) represents an in vitro model of an inflammatory situation. Agents that block inflammatory mediator production in this assay are expected to have anti-inflammatory or immunosuppressive effects in inflammatory or immune diseases.
(§2) The half-maximal inhibitory effect (in μM) of various PJ compounds was assessed under a variety of conditions in immunostimulated J774 macrophages and in peroxynitrite-stimulated thymocytes. Macrophages or thymocytes were first treated with a chosen PJ compound for 30 min at a concentration ranging from 0.1 to 30 μM. The cells were then immunostimulated with LPS (10 μg/ml) or treated with peroxynitrite (30 μM). MIP production in the macrophages was measured at 3 h, TNF and nitric oxide were measured at 24 h, cell viability in the macrophages were measured at 24 h. PARS activation and cell death in thymocytes were measured at 6 h. Measurements of mediator production, PARS activation and cell death were essentially as described in Németh, et al., Eur J Pharmacol 339:215-221, 1997 and Virág and Szabó, Br J Pharmacol, 126: 769-777, 1999. Results in Table 2 are shown as EC50 values (half maximal inhibition of mediator production or restoration of cell viability; in μM): [mean±SEM of n=3-6 determinations].

The subject of experiment [3] is thoracic aortic rings from wild-type mice. Briefly: High glucose induced endothelial dysfunction in isolated thoracic aortic rings. More on the design: species or system mouse. As to conditions: 30 mM glucose 16 hours; co-incubation with PJ34 1 μM. Here is the method: Breeding pairs of mice for the PARS colony were a gift from Dr. Z. Q. Wang, International Agency for Research on Cancer Lyon, France. Thoracic aortae from PARS^−/− and PARS^+/+ mice (Wang et al., Genes Dev.9: 509-520, 1995) were harvested, cleared of periadvential fat, and cut into 3 or 4 pieces. […] Four different media preparations were used: a) normal glucose, i.e. 5 mM: in F-12K Nutrient Mixture medium (Gibco BRL—Life Technologies); b) Osmotic control, i.e. 30 mM L-glucose in F-12K medium; c) High glucose i.e. 30 mM D-glucose in F-12K medium; […].
After incubation, aortic rings were mounted in organ baths filled with warmed and gas equilibrated Krebs' solution and endothelium dependent relaxant ability was evaluated as described above.

Experiment [4] concerns Lewis rats. Briefly: Heterotopic heart transplantation: coronary blood flow and myocardial performance. In kind it is in vivo, rat. The following applies: 3 mg/kg i.v.
The test system of experiment [5] is MIP-2. Briefly: LPS-stimulated J774 macrophages: MIP-2 production. In kind it is cell-based.
Text: as §1, §2

Experiment [6] has as its system mouse. Briefly: Ischemic and reperfused gut (superior mesenteric artery occlusion). As to conditions: gut ischemia-reperfusion; 38% mortality without treatment.
Text: In another model, a mouse model of ischemic and reperfused gut was utilized.
The subject of experiment [7] is anesthetized rat. Briefly: Coronary artery ligation and release (myocardial reperfusion injury) in anesthetized rat. In kind it is in vivo. Also on record: dose or concentration left out as unconfirmed. The following applies: 1-hour coronary ischemia, 1 hour reperfusion, i.v. 10 min prior to reperfusion.
Experiment [8] concerns MIP-1α. Briefly: LPS-stimulated J774 macrophages: MIP-1α production. In kind it is cell-based.
Text: as §1, §2

Where [9] appears, read: J774 macrophages exposed to LPS.

For the molecule `CN(C)CC(=O)Nc1ccc2[nH]c(=O)c3ccccc3c2c1` [PJ34, N-(6-oxo-5,6-dihydro-phenanthridin-2-yl)-N,N-dimethylacetamide], the endotoxin-induced mortality in experiment [1] is recorded as 50%. Also, the “production of nitric oxide, measured as nitrite (in words)” value in experiment [2] (setting [9]) is recorded as “inhibited”. The EC50 in experiment [2] (Mus musculus, J774, LPS 10 μg/ml, 30 min pretreatment 0.1 to 30 μM, measured at 24 h, mean±SEM n=3-6, read-out: Inhibition of Nitrite (J774)) amounted to 15.2 ± 2.8 µM; in experiment [5] (Mus musculus, J774, LPS 10 μg/ml, 30 min pretreatment 0.1 to 30 μM, measured at 3 h, mean±SEM n=3-6, read-out: Inhibition of MIP-2 (J774)) it was 7.2 ± 0.88 µM; in experiment [8] (Mus musculus, J774, LPS 10 μg/ml, 30 min pretreatment 0.1 to 30 μM, measured at 3 h, mean±SEM n=3-6, read-out: Inhibition of MIP-1α (J774)) it was 10.2 ± 1.4 µM. Also, in experiment [3], the “impairment in endothelium-dependent relaxation by high glucose” value is listed as “prevented”. Besides, in experiment [4] (data not shown), the “myocardial performance (in words)” value is “markedly enhanced”. The Basal coronary bloodflow is 4.1 ± 0.4 mL/min in experiment [4] (1 h after transplant, vehicle 2.8 ± 0.3) and 4.2 ± 0.2 mL/min in experiment [4] (24 h after transplant, vehicle 3.9 ± 0.3). Besides, the “Acetylcholine stimulated coronary bloodflow” value was determined as 6.5 ± 0.5 mL/min in experiment [4] (1 h after transplant, vehicle 3.5 ± 0.3) and 8.2 ± 0.8 mL/min in experiment [4] (24 h after transplant, vehicle 6.1 ± 0.4). Moreover, the “production of the chemokine MIP-2 (in words)” value in experiment [5] (setting [9]) is given as “inhibited”. Further, the survival in experiment [6] is reported as 100%. The “reduction of plasma levels of creatine phosphokinase (CPK)” value in experiment [7] was “approx. 50%”. Further, in experiment [7] (62±1 without treatment), the “myocardial infarct size (area of necrosis, over area of risk)” value was determined as 50±3%. The “production of the chemokine MIP-1α (in words)” value in experiment [8] (setting [9]) was “inhibited”.
